Data from patent EP0908457B1, “3-(1,2-benzisothiazol- and isoxazol-5-Y1)-2,4(1H,3H)-pyrimidinedione or thione and 3-(1,2-benzisothiazol- and isoxazol-5-y1)-4(3H)-pyrimidinone or thione herbicidal agents” (BASF AKTIENGESELLSCHAFT, priority 1997, dated 1999).

Assays:
[1] = test system: Monochoria vaginalis, Presl.; experiment: Preemergence weed control under flooded paddy conditions, MOOVA (Monochoria); type: in vivo; conditions: preemergence, flooded paddy, rated three to four weeks after treatment; also: meaning of each grade not given here
[2] = test system: Monochoria vaginalis, Presl.; experiment: Postemergence weed control under flooded paddy conditions, MOOVA (Monochoria); type: in vivo; conditions: rated three to four weeks after treatment
[3] = test system: Oryza sativa, (L.) Tebonnet; experiment: Rice tolerance to post-transplant applications under flooded paddy conditions (Example 187), ORYSAT (Rice, Tebonnet); conditions: rated three to four weeks after treatment; also: meaning of each grade not given here
[4] = test system: Sagittaria pygmaea, L.; experiment: Preemergence weed control under flooded paddy conditions, SAGPY (Arrowhead (Pygmaea)); type: in vivo; conditions: preemergence, flooded paddy, rated three to four weeks after treatment; also: meaning of each grade not given here
[5] = test system: Cyperus serotinus, Rottb.; experiment: Preemergence weed control under flooded paddy conditions, CYPSE (Flatsedge); type: in vivo; conditions: preemergence, rated three to four weeks after treatment; also: meaning of each grade not given here
[6] = test system: Sagittaria pygmaea, L.; experiment: Postemergence weed control under flooded paddy conditions, SAGPY (Arrowhead (Pygmaea)); type: in vivo; conditions: rated three to four weeks after treatment
[7] = test system: Cyperus serotinus, Rottb.; experiment: Postemergence weed control under flooded paddy conditions, CYPSE (Flatsedge); type: in vivo; conditions: rated three to four weeks after treatment
[8] = test system: Echinochloa oryzoides (Ard.) Fritsch.; experiment: Preemergence weed control under flooded paddy conditions, ECHORC (Watergrass (Calif.)); type: in vivo; conditions: preemergence, flooded paddy, rated three to four weeks after treatment; also: meaning of each grade not given here
[9] = test system: Cyperus iria; experiment: Postemergence weed control under flooded paddy conditions, CYPIR (Rice Flatsedge); type: in vivo; conditions: rated three to four weeks after treatment
[10] = test system: Cyperus iria; experiment: Preemergence weed control under flooded paddy conditions, CYPIR (Rice Flatsedge); type: in vivo; conditions: preemergence, flooded paddy, rated three to four weeks after treatment; also: meaning of each grade not given here
[11] = test system: Echinochloa oryzoides (Ard.) Fritsch.; experiment: Postemergence weed control under flooded paddy conditions, ECHORC (Watergrass (Calif.)); type: in vivo; conditions: rated three to four weeks after treatment
[12] = test system: Oryza sativa, (L.) Tebonnet; experiment: Rice tolerance to post-transplant applications under flooded paddy conditions (Example 188), ORYSAT (Rice, Tebonnet); conditions: rated three to four weeks after treatment

## CC(C)S(=O)(=O)NC(=O)c1nsc2ccc(-n3c(=O)cc(C(F)(F)F)n(C)c3=O)cc12 [Example 362, 1,2-Benzisothiazole-3-carboxamide, 5-[3,6-dihydro-3-methyl-2,6-dioxo-4-(trifluoromethyl)-1(2H)-pyrimidinyl]-N-(isopropylsulfonyl)-]
[1]; Rate 0.0320 kg/ha
  herbicidal effect rating, MOOVA: 9.0
[1]; Rate 0.0620 kg/ha
  herbicidal effect rating, MOOVA: 9.0
[1]; Rate 0.1250 kg/ha
  herbicidal effect rating, MOOVA: 9.0
[1]; Rate 0.2500 kg/ha
  herbicidal effect rating, MOOVA: 9.0
[1]; Rate 0.5000 kg/ha
  herbicidal effect rating, MOOVA: 9.0
[2]; Rate 0.0320 kg/ha
  herbicidal effect rating, MOOVA: 9.0
[2]; Rate 0.0620 kg/ha
  herbicidal effect rating, MOOVA: 9.0
[2]; Rate 0.1250 kg/ha
  herbicidal effect rating, MOOVA: 9.0
[2]; Rate 0.2500 kg/ha
  herbicidal effect rating, MOOVA: 9.0
[3]; Rate 0.0320 kg/ha
  herbicidal effect rating ORYSAT: 4.0
[3]; Rate 0.0620 kg/ha
  herbicidal effect rating ORYSAT: 4.0
[3]; Rate 0.1250 kg/ha
  herbicidal effect rating ORYSAT: 4.0
[3]; Rate 0.2500 kg/ha
  herbicidal effect rating ORYSAT: 6.0
[3]; Rate 0.5000 kg/ha
  herbicidal effect rating ORYSAT: 8.0
[4]; Rate 0.0320 kg/ha
  herbicidal effect rating, SAGPY: 9.0
[4]; Rate 0.0620 kg/ha
  herbicidal effect rating, SAGPY: 9.0
[4]; Rate 0.1250 kg/ha
  herbicidal effect rating, SAGPY: 9.0
[4]; Rate 0.2500 kg/ha
  herbicidal effect rating, SAGPY: 9.0
[4]; Rate 0.5000 kg/ha
  herbicidal effect rating, SAGPY: 9.0
[5]; Rate 0.0320 kg/ha
  herbicidal effect rating, CYPSE: 6.0
[5]; Rate 0.0620 kg/ha
  herbicidal effect rating, CYPSE: 9.0
[5]; Rate 0.1250 kg/ha
  herbicidal effect rating, CYPSE: 9.0
[5]; Rate 0.2500 kg/ha
  herbicidal effect rating, CYPSE: 9.0
[5]; Rate 0.5000 kg/ha
  herbicidal effect rating, CYPSE: 9.0
[6]; Rate 0.0320 kg/ha
  herbicidal effect rating, SAGPY: 0.0
[6]; Rate 0.0620 kg/ha
  herbicidal effect rating, SAGPY: 0.0
[6]; Rate 0.1250 kg/ha
  herbicidal effect rating, SAGPY: 4.0
[6]; Rate 0.2500 kg/ha
  herbicidal effect rating, SAGPY: 8.0
[7]; Rate 0.0320 kg/ha
  herbicidal effect rating, CYPSE: 0.0
[7]; Rate 0.0620 kg/ha
  herbicidal effect rating, CYPSE: 9.0
[7]; Rate 0.1250 kg/ha
  herbicidal effect rating, CYPSE: 9.0
[7]; Rate 0.2500 kg/ha
  herbicidal effect rating, CYPSE: 9.0
[8]; Rate 0.0320 kg/ha
  herbicidal effect rating, ECHORC: 4.0
[8]; Rate 0.0620 kg/ha
  herbicidal effect rating, ECHORC: 7.0
[8]; Rate 0.1250 kg/ha
  herbicidal effect rating, ECHORC: 7.0
[8]; Rate 0.2500 kg/ha
  herbicidal effect rating, ECHORC: 9.0
[8]; Rate 0.5000 kg/ha
  herbicidal effect rating, ECHORC: 9.0
[9]; Rate 0.0320 kg/ha
  herbicidal effect rating, CYPIR: 4.0
[9]; Rate 0.0620 kg/ha
  herbicidal effect rating, CYPIR: 7.0
[9]; Rate 0.1250 kg/ha
  herbicidal effect rating, CYPIR: 8.0
[9]; Rate 0.2500 kg/ha
  herbicidal effect rating, CYPIR: 4.0
[10]; Rate 0.0320 kg/ha
  herbicidal effect rating, CYPIR: 3.0
[10]; Rate 0.0620 kg/ha
  herbicidal effect rating, CYPIR: 5.0
[10]; Rate 0.1250 kg/ha
  herbicidal effect rating, CYPIR: 5.0
[10]; Rate 0.2500 kg/ha
  herbicidal effect rating, CYPIR: 7.0
[10]; Rate 0.5000 kg/ha
  herbicidal effect rating, CYPIR: 9.0
[11]; Rate 0.0320 kg/ha
  herbicidal effect rating, ECHORC: 0.0
[11]; Rate 0.0620 kg/ha
  herbicidal effect rating, ECHORC: 2.0
[11]; Rate 0.1250 kg/ha
  herbicidal effect rating, ECHORC: 7.0
[11]; Rate 0.2500 kg/ha
  herbicidal effect rating, ECHORC: 9.0
[12]; Rate 0.0320 kg/ha
  herbicidal effect rating, ORYSAT (rice tolerance): 3.0
[12]; Rate 0.0620 kg/ha
  herbicidal effect rating, ORYSAT (rice tolerance): 3.0
[12]; Rate 0.1250 kg/ha
  herbicidal effect rating, ORYSAT (rice tolerance): 3.0
[12]; Rate 0.2500 kg/ha
  herbicidal effect rating, ORYSAT (rice tolerance): 6.0

## COCc1nsc2cc(F)c(-n3c(=O)cc(C(F)(F)F)n(C)c3=O)cc12 [Example 378, 2,4(1H,3H)-Pyrimidinedione, 3-[6-fluoro-3-(methoxymethyl)-1,2-benzisothiazol-5-yl]-1-methyl-6-(trifluoromethyl)-]
[1]; Rate 0.0320 kg/ha
  herbicidal effect rating, MOOVA: 9.0
[1]; Rate 0.0620 kg/ha
  herbicidal effect rating, MOOVA: 9.0
[1]; Rate 0.1250 kg/ha
  herbicidal effect rating, MOOVA: 9.0
[1]; Rate 0.2500 kg/ha
  herbicidal effect rating, MOOVA: 9.0
[2]; Rate 0.0320 kg/ha
  herbicidal effect rating, MOOVA: 9.0
[2]; Rate 0.0620 kg/ha
  herbicidal effect rating, MOOVA: 9.0
[2]; Rate 0.1250 kg/ha
  herbicidal effect rating, MOOVA: 9.0
[3]; Rate 0.0320 kg/ha
  herbicidal effect rating ORYSAT: 9.0
[3]; Rate 0.0620 kg/ha
  herbicidal effect rating ORYSAT: 9.0
[3]; Rate 0.1250 kg/ha
  herbicidal effect rating ORYSAT: 9.0
[3]; Rate 0.2500 kg/ha
  herbicidal effect rating ORYSAT: 9.0
[4]; Rate 0.0320 kg/ha
  herbicidal effect rating, SAGPY: 9.0
[4]; Rate 0.0620 kg/ha
  herbicidal effect rating, SAGPY: 9.0
[4]; Rate 0.1250 kg/ha
  herbicidal effect rating, SAGPY: 9.0
[4]; Rate 0.2500 kg/ha
  herbicidal effect rating, SAGPY: 9.0
[5]; Rate 0.0320 kg/ha
  herbicidal effect rating, CYPSE: 9.0
[5]; Rate 0.0620 kg/ha
  herbicidal effect rating, CYPSE: 9.0
[5]; Rate 0.1250 kg/ha
  herbicidal effect rating, CYPSE: 9.0
[5]; Rate 0.2500 kg/ha
  herbicidal effect rating, CYPSE: 9.0
[6]; Rate 0.0320 kg/ha
  herbicidal effect rating, SAGPY: 9.0
[6]; Rate 0.0620 kg/ha
  herbicidal effect rating, SAGPY: 9.0
[6]; Rate 0.1250 kg/ha
  herbicidal effect rating, SAGPY: 9.0
[7]; Rate 0.0320 kg/ha
  herbicidal effect rating, CYPSE: 9.0
[7]; Rate 0.0620 kg/ha
  herbicidal effect rating, CYPSE: 9.0
[7]; Rate 0.1250 kg/ha
  herbicidal effect rating, CYPSE: 9.0
[8]; Rate 0.0320 kg/ha
  herbicidal effect rating, ECHORC: 9.0
[8]; Rate 0.0620 kg/ha
  herbicidal effect rating, ECHORC: 9.0
[8]; Rate 0.1250 kg/ha
  herbicidal effect rating, ECHORC: 9.0
[8]; Rate 0.2500 kg/ha
  herbicidal effect rating, ECHORC: 9.0
[9]; Rate 0.0320 kg/ha
  herbicidal effect rating, CYPIR: 9.0
[9]; Rate 0.0620 kg/ha
  herbicidal effect rating, CYPIR: 9.0
[9]; Rate 0.1250 kg/ha
  herbicidal effect rating, CYPIR: 9.0
[10]; Rate 0.0320 kg/ha
  herbicidal effect rating, CYPIR: 9.0
[10]; Rate 0.0620 kg/ha
  herbicidal effect rating, CYPIR: 9.0
[10]; Rate 0.1250 kg/ha
  herbicidal effect rating, CYPIR: 9.0
[10]; Rate 0.2500 kg/ha
  herbicidal effect rating, CYPIR: 9.0
[11]; Rate 0.0320 kg/ha
  herbicidal effect rating, ECHORC: 9.0
[11]; Rate 0.0620 kg/ha
  herbicidal effect rating, ECHORC: 9.0
[11]; Rate 0.1250 kg/ha
  herbicidal effect rating, ECHORC: 9.0
[12]; Rate 0.0320 kg/ha
  herbicidal effect rating, ORYSAT (rice tolerance): 8.0
[12]; Rate 0.0620 kg/ha
  herbicidal effect rating, ORYSAT (rice tolerance): 8.0
[12]; Rate 0.1250 kg/ha
  herbicidal effect rating, ORYSAT (rice tolerance): 9.0
